Test results taken from US9834558B2, “Substituted bridged urea analogs as sirtuin modulators” (GLAXOSMITHKLINE LLC, priority 2013, dated 2017).
Like-named read-outs stand apart in the source and are kept apart here. Each block holds one compound with its values, some of them ahead of it.

Molecular target: T1, SIRT1 (Homo sapiens, UniProt Q96EB6)
T1 sequence (Q96EB6 1-747): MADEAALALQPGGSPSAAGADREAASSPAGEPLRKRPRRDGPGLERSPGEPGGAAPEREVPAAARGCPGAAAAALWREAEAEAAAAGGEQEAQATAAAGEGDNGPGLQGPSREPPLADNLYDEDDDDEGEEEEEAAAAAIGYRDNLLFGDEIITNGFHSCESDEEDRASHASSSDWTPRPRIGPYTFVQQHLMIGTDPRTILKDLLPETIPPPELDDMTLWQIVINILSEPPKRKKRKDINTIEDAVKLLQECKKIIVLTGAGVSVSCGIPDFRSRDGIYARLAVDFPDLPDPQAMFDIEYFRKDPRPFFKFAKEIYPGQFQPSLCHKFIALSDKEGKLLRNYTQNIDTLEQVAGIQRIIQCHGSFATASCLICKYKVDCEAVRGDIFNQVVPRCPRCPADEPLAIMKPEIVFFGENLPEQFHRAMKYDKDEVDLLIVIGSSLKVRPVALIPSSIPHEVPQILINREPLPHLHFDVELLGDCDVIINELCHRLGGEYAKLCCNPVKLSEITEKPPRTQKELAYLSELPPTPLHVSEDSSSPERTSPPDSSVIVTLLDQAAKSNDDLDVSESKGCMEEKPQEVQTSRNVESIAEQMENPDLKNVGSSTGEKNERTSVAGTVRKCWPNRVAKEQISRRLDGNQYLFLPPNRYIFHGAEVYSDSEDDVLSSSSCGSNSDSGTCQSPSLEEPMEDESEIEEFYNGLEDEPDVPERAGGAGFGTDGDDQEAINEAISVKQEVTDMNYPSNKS
Test: Trp mass spectrometry assay of SIRT1 activation
Type: biochemical
Details: for TRP Activity (EC1.5): EC1.5 = concentration that results in 150% activation of SIRT1
How it was run: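 N-terminal His-tagged human SIRT1 (10 nM, E. coli BL21(DE3)) with 0.5 μM Ac-RHKK(Ac)W-NH2 peptide and 120 μM βNAD+, 25 min at 25 °C in HEPES pH 7.5, formic acid stop. OAADPR or deacetylated peptide quantified by mass spectrometry; EC1.5 (50% activity increase over control) and Percent Maximum Activation reported.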

[1] = Trp mass spectrometry assay, concentration of test compound giving 150% activation of SIRT1
[2] = concentration giving 150% activation of SIRT1, Trp peptide substrate
[3] = Trp mass spectrometry assay, EC1.5 = concentration of test compound that results in 150% activation of SIRT1
[4] = Trp peptide assay, maximum activity relative to control (100%), read-out: TRP MAX RESP (percent maximum fold activation)

Tryp AVG EC1.5 (μM) [1]: B (B (EC1.5 1-25 μM))
SMILES: O=C(Nc1cnccn1)N1c2nc(-c3cncc(F)c3)ccc2N2CC[C@H]1C2 [Example 400]

Tryp AVG EC1.5 (μM) [3]: B (B (EC1.5 1-25 μM))
SMILES: CCCn1cc(-c2ccc3c(n2)N(C(=O)Nc2cccnc2)[C@H]2CCN3C2)cn1 [Example 487]

TRP Activity (EC1.5) (Trp peptide assay): B (B (EC1.5 1-25 μM))
Emax [4]: > 150%
SMILES: Cc1cncc(-c2ccc3c(n2)N(C(=O)Nc2cnccn2)[C@H]2CCN3C2)c1 [(9S)-5-(5-methylpyridin-3-yl)-N-(pyrazin-2-yl)-1,6,8-triazatricyclo[7.2.1.0 {2,7}]dodeca-2(7),3,5-triene-8-carboxamide]

TRP Activity (EC1.5) (Trp peptide assay): B (B (EC1.5 1-25 μM))
Emax [4]: > 150%
SMILES: CCOc1cc(-c2ccc3c(n2)N(C(=O)Nc2cnccn2)[C@H]2CCN3C2)ccn1 [(9S)-5-(2-ethoxypyridin-4-yl)-N-(pyrazin-2-yl)-1,6,8-triazatricyclo[7.2.1.0 {2,7}]dodeca-2(7),3,5-triene-8-carboxamide]

Tryp AVG EC1.5 (μM) [3]: B (B (EC1.5 1-25 μM))
Emax (Trp mass spectrometry assay, percent maximum fold activation of SIRT1, read-out: Tryp % Fold Act): > 150%
SMILES: O=C(Nc1cccnn1)N1c2nc(-c3cccnc3)ccc2N2CCC[C@H]1C2 [Example 457]

TRP Activity (EC1.5) (Trp peptide assay): C (C (EC1.5>25 μM))
Emax [4]: < 150%
SMILES: O=C(Nc1cccnc1)N1c2nc(N3CCOC[C@@H]3CO)ccc2N2CC[C@H]1C2 [(9S)-5-[(3S)-3-(hydroxymethyl)morpholin-4-yl]-N-(pyridin-3-yl)-1,6,8-triazatricyclo[7.2.1.0 {2,7}]dodeca-2(7),3,5-triene-8-carboxamide]

Tryp AVG EC1.5 (μM) [3]: B (B (EC1.5 1-25 μM))
SMILES: O=C(Nc1cnccn1)N1c2nc(-c3cccnc3)ccc2N2CCC[C@H]1C2 [Example 454]

Tryp AVG EC1.5 (μM) [3]: B (B (EC1.5 1-25 μM))
SMILES: N#Cc1ccccc1-c1ccc2c(n1)N(C(=O)Nc1cccnc1)[C@H]1CCCN2C1 [Example 438]

Tryp AVG EC1.5 (μM) [1]: A (A (EC1.5<1 μM))
SMILES: O=C(Nc1ccccn1)N1c2nc(-c3cncc(Cl)c3)ccc2N2CCC[C@H]1C2 [Example 406]

Tryp AVG EC1.5 (μM) [1]: B (B (EC1.5 1-25 μM))
SMILES: O=C(Nc1ccccn1)N1c2nc(-c3cncc(F)c3)ccc2N2CC[C@H]1C2 [Example 374]

Tryp AVG EC1.5 (μM) [3]: B (B (EC1.5 1-25 μM))
SMILES: Cn1nccc1-c1ccc2c(n1)N(C(=O)Nc1cccnc1)[C@H]1CCN2C1 [Example 524]

TRP Activity (EC1.5) (Trp peptide assay): B (B (EC1.5 1-25 μM))
Emax [4]: > 150%
SMILES: Cn1cc(-c2ccc3c(n2)N(C(=O)Nc2cccnc2)[C@H]2CCN3C2)ccc1=O [(9S)-5-(1-methyl-6-oxo-1,6-dihydropyridin-3-yl)-N-(pyridin-3-yl)-1,6,8-triazatricyclo[7.2.1.0^2,7]dodeca-2(7),3,5-triene-8-carboxamide]

TRP Activity (EC1.5) (Trp peptide assay): B (B (EC1.5 1-25 μM))
Emax [4]: > 150%
SMILES: Cc1ccc(NC(=O)N2c3nc(-c4ccnc(C)c4)ccc3N3CC[C@H]2C3)cn1 [(9S)-N-(6-methylpyridin-3-yl)-5-(2-methylpyridin-4-yl)-1,6,8-triazatricyclo[7.2.1.0 {2,7}]dodeca-2(7),3,5-triene-8-carboxamide]

Tryp AVG EC1.5 (μM) [3]: B (B (EC1.5 1-25 μM))
SMILES: COc1cc(NC(=O)N2c3nc(-c4ccnc(N5CC[C@H](F)C5)c4)ccc3N3CC[C@H]2C3)ncn1 [Example 437]

Tryp AVG EC1.5 (μM) [3]: C (C (EC1.5>25 μM))
SMILES: CC(=O)N1CCCN(c2ccc3c(n2)N(C(=O)Nc2ccncn2)[C@H]2CCCN3C2)CC1 [Example 434]

Tryp AVG EC1.5 (μM) [3]: B (B (EC1.5 1-25 μM))
SMILES: O=C(NCCN1CCOCC1)N1c2nc(-c3cccc(C(F)(F)F)c3)ccc2N2CC[C@H]1C2 [Example 616]

TRP Activity (EC1.5) (Trp peptide assay): C (C (EC1.5>25 μM))
Emax [4]: < 150%
SMILES: Cc1ccc(-c2ccc3c(n2)N(C(=O)NC2CCOC2)[C@H]2CCN3C2)cn1 (stereo partly drawn) [(9S)-5-(6-methylpyridin-3-yl)-N-(oxolan-3-yl)-1,6,8-triazatricyclo[7.2.1.0 {2,7}]dodeca-2,4,6-triene-8-carboxamide]

Further lines, the compound ahead of its results:

SMILES: CS(=O)(=O)c1cncc(-c2ccc3c(n2)N(C(=O)Nc2ccccn2)[C@H]2CCCN3C2)c1 [Example 375]
Tryp AVG EC1.5 (μM) [1]: A (A (EC1.5<1 μM))

SMILES: CCCn1cc(-c2cccc(NC(=O)N3c4nc(-c5cccc(C(F)(F)F)c5)ccc4N4CC[C@H]3C4)n2)cn1 [Example 656]
Tryp AVG EC1.5 (μM) [2]: A (A (EC1.5<1 μM))

SMILES: COc1cc(NC(=O)N2c3nc(-c4cccc(C(F)(F)F)c4)ccc3N3C[C@@H](O)[C@H]2C3)ncn1 [Example 644]
Tryp AVG EC1.5 (μM) [2]: B (B (EC1.5 1-25 μM))

SMILES: O=C(Nc1cccc(C2(C(F)(F)F)N=N2)c1)N1c2nc(-c3cccc(C(F)(F)F)c3)ccc2N2CCC[C@H]1C2 [Example 335]
Tryp AVG EC1.5 (μM) [1]: A (A (EC1.5<1 μM))

SMILES: O=C(Nc1cnccn1)N1c2nc(-c3cncc(C(F)(F)F)c3)ccc2N2CCC[C@H]1C2 [Example 452]
Tryp AVG EC1.5 (μM) [3]: A (A (EC1.5<1 μM))

SMILES: COc1cc(NC(=O)N2c3nc(-c4cnccc4C)ccc3N3CCC[C@H]2C3)ncn1 [Example 511]
Tryp AVG EC1.5 (μM) [3]: C (C (EC1.5>25 μM))

SMILES: O=C(Nc1cc(Br)cc(-c2cnco2)c1)N1c2nc(-c3cccc(C(F)(F)F)c3)ccc2N2CC[C@H]1C2 [Example 562]
Tryp AVG EC1.5 (μM) [3]: A (A (EC1.5<1 μM))

SMILES: O=C(Nc1nnc(-c2ccccc2)s1)N1c2nc(-c3cccc(C(F)(F)F)c3)ccc2N2CC[C@H]1C2 [Example 648]
Tryp AVG EC1.5 (μM) [2]: A (A (EC1.5<1 μM))

SMILES: Cn1ncc2cc(NC(=O)N3c4nc(-c5cccc(C(F)(F)F)c5)ccc4N4CC[C@H]3C4)ccc21 [Example 87]
Tryp AVG EC1.5 (μM) (Trp peptide substrate, concentration giving 150% activation of SIRT1): A (A (EC1.5<1 μM))

SMILES: Cc1cc(-c2ccc3c(n2)N(C(=O)Nc2ccc4[nH]ncc4c2)[C@H]2CCN3C2)ccn1 [(9S)-N-(1H-indazol-5-yl)-5-(2-methylpyridin-4-yl)-1,6,8-triazatricyclo[7.2.1.0 {2,7}]dodeca-2(7),3,5-triene-8-carboxamide]
TRP Activity (EC1.5) (Trp peptide assay): A (A (EC1.5<1 μM))
Emax [4]: > 150%

SMILES: COc1cc(NC(=O)N2c3nc(-c4cncc(C(F)(F)F)c4)ccc3N3CCC[C@H]2C3)ncn1 [Example 394]
Tryp AVG EC1.5 (μM) [1]: A (A (EC1.5<1 μM))

SMILES: Cc1cncc(-c2ccc3c(n2)N(C(=O)Nc2cnccn2)[C@H]2CCCN3C2)c1 [Example 512]
Tryp AVG EC1.5 (μM) [3]: B (B (EC1.5 1-25 μM))

SMILES: C#CNc1nccc(NC(=O)N2c3nc(-c4cccc(C5(C(F)(F)F)N=N5)c4)ccc3N3CC[C@H]2C3)n1 [Example 809]
Tryp AVG EC1.5 (μM) [2]: B (B (EC1.5 1-25 μM))
Emax (percent maximum fold activation of SIRT1, Trp peptide substrate, read-out: Tryp % Fold Act): > 150%

SMILES: CS(=O)(=O)c1cccc(-c2ccc3c(n2)N(C(=O)Nc2cccc(-c4cnco4)n2)[C@H]2CCN3C2)c1 [Example 715]
Tryp AVG EC1.5 (μM) [2]: B (B (EC1.5 1-25 μM))

SMILES: Cc1cncc(NC(=O)N2c3nc(-c4cccc(Cl)c4)ccc3N3C[C@@H](O)[C@H]2C3)c1 [Example 676]
Tryp AVG EC1.5 (μM) [2]: A (A (EC1.5<1 μM))

SMILES: O=C(Nc1cncc(OC[C@H](O)CO)n1)N1c2nc(-c3cccc(C(F)(F)F)c3)ccc2N2CC[C@H]1C2 [(9S)-N-{6-[(2R)-2,3-dihydroxypropoxy]pyrazin-2-yl}-5-[3-(trifluoromethyl)phenyl]-1,6,8-triazatricyclo[7.2.1.0 {2,7}]dodeca-2(7),3,5-triene-8-carboxamide]
TRP Activity (EC1.5) (Trp peptide assay): A (A (EC1.5<1 μM))
Emax [4]: > 150%

SMILES: N#Cc1ccccc1-c1ccc2c(n1)N(C(=O)Nc1cncc(F)c1)[C@H]1CCCN2C1 [Example 439]
Tryp AVG EC1.5 (μM) [3]: B (B (EC1.5 1-25 μM))

SMILES: O=C(Nc1cnccn1)N1c2nc(-c3cncc(F)c3)ccc2N2CCC[C@H]1C2 [Example 432]
Tryp AVG EC1.5 (μM) [3]: B (B (EC1.5 1-25 μM))

SMILES: O=C(Nc1ccc(Br)c(-c2cnco2)c1)N1c2nc(-c3cccc(C(F)(F)F)c3)ccc2N2CC[C@H]1C2 [Example 672]
Tryp AVG EC1.5 (μM) [2]: A (A (EC1.5<1 μM))

SMILES: Cc1nc(NC(=O)N2c3nc(-c4cncc(Cl)c4)ccc3N3CCC2CC3)sc1C [Example 554]
Tryp AVG EC1.5 (μM) [3]: B (B (EC1.5 1-25 μM))

SMILES: Cc1cc(-c2ccc3c(n2)N(C(=O)Nc2cncc(OC(C)C)n2)[C@H]2CCN3C2)ccn1 [(9S)-5-(2-methylpyridin-4-yl)-N-[6-(propan-2-yloxy)pyrazin-2-yl]-1,6,8-triazatricyclo[7.2.1.0 {2,7}]dodeca-2(7),3,5-triene-8-carboxamide]
TRP Activity (EC1.5) (Trp peptide assay): A (A (EC1.5<1 μM))
Emax [4]: > 150%

SMILES: O=C(O)c1cc(NC(=S)NCc2ccc(NC(=O)N3c4nc(-c5cccc(C(F)(F)F)c5)ccc4N4CCC[C@H]3C4)cc2)ccc1-c1c2ccc(=O)cc-2oc2cc(O)ccc12 [Example 563]
Tryp AVG EC1.5 (μM) [3]: A (A (EC1.5<1 μM))

SMILES: CN(C)c1ccnc(NC(=O)N2c3nc(-c4cccc(C(F)(F)F)c4)ccc3N3CC[C@H]2C3)n1 [Example 747]
Tryp AVG EC1.5 (μM) [2]: A (A (EC1.5<1 μM))

SMILES: O=C(Nc1nnc(-c2ccccn2)o1)N1c2nc(-c3cccc(C(F)(F)F)c3)ccc2N2CC[C@H]1C2 [Example 720]
Tryp AVG EC1.5 (μM) [2]: A (A (EC1.5<1 μM))
